This is an account of results in patent publication US20220348592A1, “FUSED HETEROCYCLIC DERIVATIVES” (Janssen Sciences Ireland Unlimited Company, priority 2019, published 2022).

Read-outs that look alike come from different tables or passages of the source.

The nature of data set [1]: Cytotoxicity in HepG2.117 cells, ATPlite Luminescence Assay. In kind it is cell-based, human. The note with it: human, incubated for 3 days, mean value, read-out: TOX-HepG2.117 CC50 (μM, mean value). How it is done:
Cytotoxicity of the compounds was tested using HepG2 or HepG2.117 cells, incubated for 3 days in the presence of compounds. The viability of the cells was assessed using the PERKIN ELMER ATPlite Luminescence Assay System.”
In general terms: Cellular ATP, detected with luciferase, serves as a proxy for viable cell number.

In the next data set the test system is HBV. The experiment in a line: Anti-HBV activity: intracellular HBV DNA by real-time PCR in HepG2.117 cell line. The class given is cell-based, Hepatitis B virus. The note with it: Hepatitis B virus, read-out: HBV-AVE-HepG2.117 EC50 (μM, mean value). How it is done: The anti HBV activity was measured using the HepG2.117 cell line, a stable, inducibly HBV producing cell line, which replicates HBV in the absence of doxicycline (Tet-off system). The HepG2 cell line is available from ATCC® under number HB-8065. Transfection of the HepG2 cell line can be as described in Sun and Nassal 2006 Journal of Hepatology 45 (2006) 636-645 “Stable HepG2- and Huh7-based human hepatoma cell lines for efficient regulated expression of infectious hepatitis B virus”.
For the antiviral assay, HBV replication was induced, followed by a treatment with serially diluted compound in 96-well plates. After 3 days of treatment, the antiviral activity was determined by quantification of intracellular HBV DNA using real-time PCR and an HBV specific primer set and probe.

The mark [2] stands for this setting: 72 h, HepG2.117 cells, 3 days of treatment, intracellular HBV DNA by real-time PCR, mean value.

Take `C[C@@H]1Cc2nn3c(c2CN1C(=O)c1ccc(Cl)c(Cl)c1)C(=O)N([C@H](C)c1ccc(C#N)cc1)CC3` (relative stereo) [C88*R]: the CC50 at 3 days in data set [1] is more than 50 µM. Besides, the half-maximal effective concentration (EC50) in the data set with HBV (setting [2]) was 0.076 µM.
On the same counts, the results for `C[C@@H]1Cc2nn3c(c2CN1C(=O)c1ccc(Cl)c(Cl)c1)C(=O)N([C@@H](C)c1ccc(C#N)cc1)CC3` (relative stereo) [C88*S] are more than 50 µM and 0.023 µM.
Taken in the same sequence, the figures for `C[C@@H]1Cc2nn3c(c2CN1C(=O)c1ccc(Cl)c(Cl)c1)C(=O)N([C@H](C)c1ccc(C(F)(F)F)cc1)CC3` (relative stereo) [C105*R] were 14.6 µM and 0.059 µM.
Turning to `C[C@@H]1Cc2nn3c(c2CN1C(=O)c1ccc(Cl)c(Cl)c1)C(=O)N([C@@H](C)c1ccc(C(F)(F)F)cc1)CC3` (relative stereo) [C105*S], the CC50 at 3 days in data set [1] is more than 50 µM. In addition, the EC50 in the data set on HBV (setting [2]) is 0.297 µM.
As to `C[C@@H]1Cc2nn3c(c2CN1C(=O)c1ccc(Cl)c(Cl)c1)C(=O)N([C@@H](C)c1ccccc1C(F)(F)F)CC3` (relative stereo) [C123*R], the CC50 at 3 days in data set [1] was 20 µM. In addition, the half-maximal effective concentration (EC50) in the data set on HBV (setting [2]) turned out to be 0.174 µM.
Take `C[C@@H]1Cc2nn3c(c2CN1C(=O)c1ccc(Cl)c(Cl)c1)C(=O)N([C@H](C)c1ccccc1C(F)(F)F)CC3` (relative stereo) [C123*S]: in data set [1], the CC50 at 3 days came to 19.2 µM. Besides, the half-maximal effective concentration (EC50) in the data set with HBV (setting [2]) came out at 0.517 µM.
In the case of `C[C@@H]1Cc2nn3c(c2CN1C(=O)c1ccc(Cl)c(Cl)c1)C(=O)N([C@H](C)c1c[nH]nn1)CC3` (single isomer, unassigned) [Compound 31, (3R)-2-(3,4-Dichlorobenzoyl)-3-methyl-9-[(1*R)-1-(1H-1,2,3-triazol-4-yl)ethyl]-1,2,3,4,8,9-hexahydropyrido[4′,3′:3,4]pyrazolo[1,5-a]pyrazin-10(7H)-one], the half-maximal cytotoxic concentration (CC50) at 3 days in data set [1] was more than 50 µM. In the data set with HBV (setting [2]), the concentration giving a half-maximal response (EC50) worked out at 0.075 µM.
On the same counts, the results for `C[C@@H]1Cc2nn3c(c2CN1C(=O)c1ccc(Cl)c(Cl)c1)C(=O)N([C@@H](C)c1c[nH]nn1)CC3` (single isomer, unassigned) [Compound 32, (3R)-2-(3,4-Dichlorobenzoyl)-3-methyl-9-[(1*S)-1-(1H-1,2,3-triazol-4-yl)ethyl]-1,2,3,4,8,9-hexahydropyrido[4′,3′:3,4]pyrazolo[1,5-a]pyrazin-10(7H)-one] are more than 50 µM and 0.332 µM.
Consider `CN1O[C@@H](CO)Cn2nc3c(c2C1=O)CN(C(=O)c1ccc(Cl)c(Cl)c1)CC3` (single isomer, unassigned) [Compound 45, (4*R)-10-(3,4-Dichlorobenzoyl)-4-(hydroxymethyl)-2-methyl-4,5,8,9,10,11-hexahydropyrido-[4′,3′:3,4]pyrazolo[5,1-d][1,2,5]oxadiazepin-1(2H)-one], for which the CC50 at 3 days in data set [1] is more than 50 µM. For the same compound, the EC50 in the data set on HBV (setting [2]) came out at 0.192 µM.
As to `CN1O[C@H](CO)Cn2nc3c(c2C1=O)CN(C(=O)c1ccc(Cl)c(Cl)c1)CC3` (single isomer, unassigned) [Compound 46, (4*S)-10-(3,4-Dichlorobenzoyl)-4-(hydroxymethyl)-2-methyl-4,5,8,9,10,11-hexahydropyrido-[4′,3′:3,4]pyrazolo[5,1-d][1,2,5]oxadiazepin-1(2H)-one], the CC50 at 3 days in data set [1] was more than 50 µM. In addition, the EC50 in the data set on HBV (setting [2]) was 0.505 µM.
On the same counts, the results for `O=C1NCCn2nc3c(c21)CN(C(=O)c1ccc(Cl)c(Cl)c1)CC3` [Compound 1, 2-(3,4-Dichlorobenzoyl)-1,2,3,4,8,9-hexahydropyrido[4′,3′:3,4]pyrazolo[1,5-a]pyrazin-10(7H)-one] are more than 50 µM and 9.63 µM.
`O=C(c1ccc(Cl)c(Cl)c1)N1CCc2nn3c(c2C1)C(=O)N(Cc1ccccc1)CC3` [Compound 3, 9-Benzyl-2-(3,4-dichlorobenzoyl)-1,2,3,4,8,9-hexahydropyrido[4′,3′:3,4]pyrazolo[1,5-a]pyrazin-10(7H)-one]: in data set [1], the CC50 at 3 days stood at 25.3 µM. In the data set with HBV (HepG2.117, 72 h), the 50% effective concentration (EC50) is 0.188 µM.
Take `COc1ccc(CN2CCn3nc4c(c3C2=O)CN(C(=O)c2ccc(Cl)c(Cl)c2)CC4)cc1` [Compound 4, 2-(3,4-Dichlorobenzoyl)-9-[(4-methoxyphenyl)methyl]-1,2,3,4,8,9-hexahydropyrido[4′,3′:3,4]-pyrazolo[1,5-a]pyrazin-10(7H)-one]: the 50% cytotoxic concentration (CC50) at 3 days in data set [1] was found to be 17.9 µM. Further, the half-maximal effective concentration (EC50) in the data set with HBV (setting [2]) is 0.091 µM.
In the case of `CC(c1ccncc1)N1CCn2nc3c(c2C1=O)CN(C(=O)c1ccc(Cl)c(Cl)c1)CC3` (stereo not shown) [Compound 5, 2-(3,4-Dichlorobenzoyl)-9-[1-(pyridin-4-yl)ethyl]-1,2,3,4,8,9-hexahydropyrido[4′,3′:3,4-]pyrazolo[1,5-a]pyrazin-10(7H)-one], in data set [1], the 50% cytotoxic concentration (CC50) at 3 days was more than 50 µM. In addition, the half-maximal effective concentration (EC50) with HBV (setting [2]) came to 0.213 µM.
For `O=C(c1ccc(Cl)c(Cl)c1)N1CCc2nn3c(c2C1)C(=O)N(Cc1nccs1)CC3` [Compound 7, 2-(3,4-Dichlorobenzoyl)-9-[(1,3-thiazol-2-yl)methyl]-1,2,3,4,8,9-hexahydropyrido[4′,3′:3,4]-pyrazolo[1,5-a]pyrazin-10(7H)-one], the CC50 at 3 days in data set [1] is more than 50 µM. Further, the concentration giving a half-maximal response (EC50) in the data set on HBV (setting [2]) is 0.399 µM.
Taken in the same sequence, the figures for `O=C(c1ccc(Cl)c(Cl)c1)N1CCc2nn3c(c2C1)C(=O)N(Cc1c[nH]c2ccccc12)CC3` [Compound 8, 2-(3,4-Dichlorobenzoyl)-9-[(1H-indol-3-yl)methyl]-1,2,3,4,8,9-hexahydropyrido[4′,3′:3,4]-pyrazolo[1,5-a]pyrazin-10(7H)-one] were 10.8 µM and less than 0.039 µM.
Consider `O=C(c1ccc(Cl)c(Cl)c1)N1CCc2nn3c(c2C1)C(=O)N(Cc1cccc2[nH]ccc12)CC3` [Compound 9, 2-(3,4-Dichlorobenzoyl)-9-[(1H-indol-4-yl)methyl]-1,2,3,4,8,9-hexahydropyrido[4′,3′:3,4]-pyrazolo[1,5-a]pyrazin-10(7H)-one], for which, in data set [1], the CC50 at 3 days is 16.4 µM. The concentration giving a half-maximal response (EC50) in the data set with HBV (setting [2]) stood at 0.054 µM.
For `O=C(c1ccc(Cl)c(Cl)c1)N1CCc2nn3c(c2C1)C(=O)N(Cc1ccc(OC(F)F)cc1)CC3` [Compound 10, 2-(3,4-Dichlorobenzoyl)-9-{[4-(difluoromethoxy)phenyl]methyl}-1,2,3,4,8,9-hexahydropyrido-[4′,3′:3,4]pyrazolo[1,5-a]pyrazin-10(7H)-one], the cytotoxic concentration (CC50) at 3 days in data set [1] was found to be 7.26 µM. The concentration giving a half-maximal response (EC50) with HBV (setting [2]) was found to be 0.062 µM.
Turning to `COc1ccc(CN2CCn3nc4c(c3C2=O)CN(C(=O)c2ccc(Cl)c(Cl)c2)[C@H](C)C4)cc1` [Compound 11, (3R)-2-(3,4-Dichlorobenzoyl)-9-[(4-methoxyphenyl)methyl]-3-methyl-1,2,3,4,8,9-hexahydro-pyrido[4′,3′:3,4]pyrazolo[1,5-a]pyrazin-10(7H)-one], the cytotoxic concentration (CC50) at 3 days in data set [1] was 8.43 µM. For the same compound, in the data set with HBV (setting [2]), the concentration giving a half-maximal response (EC50) is 0.054 µM.
`C[C@@H]1Cc2nn3c(c2CN1C(=O)c1ccc(Cl)c(Cl)c1)C(=O)N(Cc1ccc(F)cc1)CC3` [Compound 12, (3R)-2-(3,4-Dichlorobenzoyl)-9-[(4-fluorophenyl)methyl]-3-methyl-1,2,3,4,8,9-hexahydro-pyrido[4′,3′:3,4]pyrazolo[1,5-a]pyrazin-10(7H)-one]: the CC50 at 3 days in data set [1] was 25.3 µM. The concentration for a half-maximal effect (EC50) in the data set with HBV (setting [2]) came out at 0.066 µM.
For the compound `C[C@@H]1Cc2nn3c(c2CN1C(=O)c1ccc(Cl)c(Cl)c1)C(=O)N(Cc1ccc(OC(F)F)cc1)CC3` [Compound 13, (3R)-2-(3,4-Dichlorobenzoyl)-9-{[4-(difluoromethoxy)phenyl]methyl}-3-methyl-1,2,3,4,8,9-hexahydropyrido[4′,3′:3,4]pyrazolo[1,5-a]pyrazin-10(7H)-one], in the data set on HBV (setting [2]), the 50% effective concentration (EC50) was 0.055 µM.
As for `C[C@@H]1Cc2nn3c(c2CN1C(=O)c1ccc(Cl)c(Cl)c1)C(=O)N(Cc1ccc(OC(F)(F)F)cc1)CC3` [Compound 14, (3R)-2-(3,4-Dichlorobenzoyl)-3-methyl-9-{[4-(trifluoromethoxy)phenyl]methyl}-1,2,3,4,8,9-hexahydropyrido[4′,3′:3,4]pyrazolo[1,5-a]pyrazin-10(7H)-one], the cytotoxic concentration (CC50) at 3 days in data set [1] is 6.96 µM. The EC50 in the data set with HBV (setting [2]) is 0.085 µM.
On the same counts, the results for `C[C@@H]1Cc2nn3c(c2CN1C(=O)c1ccc(Cl)c(Cl)c1)C(=O)N(Cc1ccccn1)CC3` [Compound 15, (3R)-2-(3,4-Dichlorobenzoyl)-3-methyl-9-[(pyridin-2-yl)methyl]-1,2,3,4,8,9-hexahydropyrido-[4′,3′:3,4]pyrazolo[1,5-a]pyrazin-10(71)-one] are more than 50 µM and 0.055 µM.
As to `C[C@@H]1Cc2nn3c(c2CN1C(=O)c1ccc(Cl)c(Cl)c1)C(=O)N(Cc1cccc2c1ccn2C)CC3` [Example C120], in the data set on HBV (setting [2]), the EC50 is 0.047 µM.
`COc1ccc(CN2CCn3nc4c(c3C2=O)CN(C(=O)c2ccc(Cl)c(Cl)c2)[C@H](C)C4)cc1F` [Example C140]: in the data set with HBV (setting [2]), the EC50 is 0.032 µM.
Take `COc1cc(CN2CCn3nc4c(c3C2=O)CN(C(=O)c2ccc(Cl)c(Cl)c2)[C@H](C)C4)ccc1OC(F)F` [Example C205]: the EC50 in the data set with HBV (setting [2]) stood at 0.04 µM.
For the compound `Cc1ccc(CN2CCn3nc4c(c3C2=O)CN(C(=O)c2ccc(Cl)c(Cl)c2)[C@H](C)C4)c(F)c1` [Example C206], the concentration giving a half-maximal response (EC50) in the data set with HBV (setting [2]) turned out to be 0.038 µM.

As a reminder, the CC50 is the concentration giving 50% cytotoxicity. By EC50 is commonly meant the concentration at which the effect is half-maximal.
